Laboratory results published in patent EP4782437A1, “HETEROARYL COMPOUND, AND PREPARATION METHOD THEREFOR AND USE THEREOF IN MEDICINE” (Jiangsu Hengrui Pharmaceuticals Co., Ltd., priority 2023, dated 2025).

Biological target: hERG potassium channels (Homo sapiens, UniProt Q12809)
Experiment: hERG channel inhibition, automated patch-clamp in HEK293-hERG stable transfected cell line
Conditions: read-out: IC50 values of blocking effects on hERG potassium currents, whole-cell patch-clamp, tail currents

Chain of hERG potassium channels (Q12809 whole entry): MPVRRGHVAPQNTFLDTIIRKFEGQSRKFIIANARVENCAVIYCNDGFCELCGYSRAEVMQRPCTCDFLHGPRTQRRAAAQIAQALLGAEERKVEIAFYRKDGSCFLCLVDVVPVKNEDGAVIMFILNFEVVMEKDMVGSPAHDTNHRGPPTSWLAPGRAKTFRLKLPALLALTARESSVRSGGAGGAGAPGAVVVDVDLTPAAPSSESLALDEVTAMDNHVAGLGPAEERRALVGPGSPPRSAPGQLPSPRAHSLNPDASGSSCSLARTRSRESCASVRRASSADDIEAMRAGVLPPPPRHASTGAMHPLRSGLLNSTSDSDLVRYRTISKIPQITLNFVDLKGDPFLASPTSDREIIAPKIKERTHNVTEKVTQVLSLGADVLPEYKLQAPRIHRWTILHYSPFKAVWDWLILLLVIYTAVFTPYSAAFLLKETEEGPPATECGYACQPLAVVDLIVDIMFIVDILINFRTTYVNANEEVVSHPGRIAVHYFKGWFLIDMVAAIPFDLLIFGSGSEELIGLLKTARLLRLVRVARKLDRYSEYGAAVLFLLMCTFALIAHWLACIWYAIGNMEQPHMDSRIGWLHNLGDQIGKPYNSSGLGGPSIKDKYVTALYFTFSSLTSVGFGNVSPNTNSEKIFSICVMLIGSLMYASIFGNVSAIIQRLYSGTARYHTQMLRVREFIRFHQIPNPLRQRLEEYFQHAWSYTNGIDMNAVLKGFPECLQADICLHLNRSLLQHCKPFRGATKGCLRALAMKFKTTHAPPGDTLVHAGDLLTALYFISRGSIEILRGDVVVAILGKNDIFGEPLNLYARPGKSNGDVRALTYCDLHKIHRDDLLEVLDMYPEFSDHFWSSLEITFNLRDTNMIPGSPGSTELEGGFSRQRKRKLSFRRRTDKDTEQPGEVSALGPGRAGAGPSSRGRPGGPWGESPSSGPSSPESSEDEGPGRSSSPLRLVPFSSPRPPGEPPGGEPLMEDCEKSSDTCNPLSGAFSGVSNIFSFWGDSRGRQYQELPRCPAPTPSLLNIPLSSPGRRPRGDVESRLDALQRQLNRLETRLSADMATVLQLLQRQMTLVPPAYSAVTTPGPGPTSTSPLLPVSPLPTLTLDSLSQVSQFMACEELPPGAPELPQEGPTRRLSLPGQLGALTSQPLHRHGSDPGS

In the case of `C=C(C)C(=O)NCCOc1c(N)ncnc1-c1cc(F)cc(NC(=O)c2sc3c(c2F)CC2(CC2)C3)c1C` [Example 26-1, N-(3-(6-amino-5-(2-(N-methacrylamido)ethoxy)pyrimidin-4-yl)-5-fluoro-2-methylphenyl)-3-fluoro-4,6-dihydrospiro[cyclopenta[b]thiophene-5,1'-cyclopropane]-2-carboxamide], the IC50 is reported as 14 µM.
